From patent publication US7829063B2, “Development of molecular imaging probes for carbonic anhydrase-IX using click chemistry” (Siemens Medical Solutions USA, Inc., priority 2007, dated 2010)

Target: T1, CA-IX (Homo sapiens, UniProt Q16790)
T1 construct: His tag (C); purchased R&D Systems Inc. 2188-CA; host or cells: mouse myeloma cell line NS0
Test: Binding affinity (Kd) determination for CA-IX inhibitors, DNSA fluorescence competition assay, Scatchard plots
Details: Table 3
Experimental: General. […] The human red blood cells were obtained from Research Blood Components, LLC. All absorbance measurements were performed on a SPECTRA MAX M2 plate reader at 25° C. The LC/MS analyses were performed on an Agilent 1100 series LC/MSD (SL) using a 30×2.1 mm Zorbax C8 column with a Phenomenex C18 pre-column. Compound detection was accomplished by electrospray mass spectroscopy in positive selected ion mode (LC/MS-SIM). The elution solvents were acetonitrile and water, contained 0.05% TFA. Nuclear magnetic resonance (NMR) spectra were obtained on a Bruker AMX 300 MHz spectrometer or a Varian 400. 19F NMR spectra were recorded on a Bruker AMX 282.35 MHz or a Varian 400 spectrometer. The mass spectra were recorded on an Agilent 1100 series LC/MSD with electrospray mass spectroscopic detection. Flash column chromatography was performed on Merck silica gel (40-63 μm) using the solvent system indicated. The radiochemical and chemical purities were analyzed by RP-HPLC.
General Procedure of Binding Affinity (Ka) Determination for CA-IX Inhibitors
The assay was based on the observation that the only fluorescence signal detected at 460 nm upon excitation at 290 nm, an absorption […] for DNSA, was that of the DNSA.CA complex. […] The latter were developed for each test compound using mass balance for calculating the concentration of CA bound to DNSA [DNSA.CA], bound to the non-fluorescent sample [CA.Inh] and free CA [CA] in solution. The Kd values were determined from Scatchard plots using the equation below as described by Whitesides et al. [CA.Inh]/[CA]tot.[Inh]=K11^inh−K11^inh{[CA.Inh]+[CA.DNSA]}/([CA]tot)
The terms [CA.DNSA], [CA.Inh], and free CA were calculated using the mass balance based on the known values for the dissociation constant of CA.DNSA and the total concentration of CA in each reaction.

Row | Structure (SMILES) | Kd [nM]
1 | CC(C)C(C(=O)NC(COCc1cccc(OCCO)c1)C(=O)O)n1cc(COc2ccc3nc(S(N)(=O)=O)sc3c2)nn1 (single isomer, unassigned) [VM3-165B] | 11
2 | Cc1onc(-c2ccccc2)c1CNC(=O)[C@H](Cc1ccccc1)n1cc(COc2ccc3nc(S(N)(=O)=O)sc3c2)nn1 [DHK2-66] | 2
3 | COCCOCCOCCOCCC(=O)NCCOc1cccc(CSC[C@@H](NC(=O)Cn2cc(COc3ccc4nc(S(N)(=O)=O)sc4c3)nn2)C(=O)O)c1 [DHK3-48] | 10
4 | NS(=O)(=O)c1nc2ccc(OCc3cn([C@@H](Cc4ccc(OCCF)cc4)C(=O)N[C@H](Cc4ccc(C(F)(F)F)cc4)C(=O)O)nn3)cc2s1 [DHK2-161] | 5
5 | CC(C)[C@@H](C(=O)NCc1ccc(C(F)(F)F)cc1)n1cc(COc2ccc3nc(S(N)(=O)=O)sc3c2)nn1 [DHK2-24] | 1
6 | Cc1cc[n+](C)c(NC(=O)[C@H](Cc2ccccc2)n2cc(-c3ccc(S(N)(=O)=O)cc3)nn2)c1 [DHK160] | 20
7 | NCCOc1cccc(COCC(NC(=O)Cn2cc(COc3ccc4nc(S(N)(=O)=O)sc4c3)nn2)C(=O)O)c1 (stereo not shown) [DHK3-149] | 10
8 | C[N+](C)(C)C[C@H](O)CC(=O)NCCOc1cccc(COCC(NC(=O)Cn2cc(COc3ccc4nc(S(N)(=O)=O)sc4c3)nn2)C(=O)O)c1 (stereo partly shown) [DHK3-156] | 10
9 | CC(C)C(C(=O)N[C@@H](Cc1ccc(OC(CO)CF)cc1)C(=O)O)n1cc(COc2ccc3nc(S(N)(=O)=O)sc3c2)nn1 (single isomer, unassigned) [GGC121B] | 13
10 | CCOC(=O)C1CCN(C(=O)[C@H](Cc2ccccc2)n2cc(COc3ccc4nc(S(N)(=O)=O)sc4c3)nn2)CC1 [DHK2-68] | 3.4
11 | NS(=O)(=O)c1nc2ccc(OCc3cn(CC(=O)N(CC(=O)O)Cc4ccc(C(F)(F)F)cc4)nn3)cc2s1 [BD3-36, 2-(2-(4-((2-sulfamoylbenzo[d]thiazol-6-yloxy)methyl)-1H-1,2,3-triazol-1-yl)-N-(4-(trifluoromethyl)benzyl)acetamido)acetic acid] | 14
12 | NS(=O)(=O)c1nc2ccc(OCc3cn(CC(=O)N[C@H](CSCc4cccc(OCCOCCOCCF)c4)C(=O)O)nn3)cc2s1 [BW2-45, (S)-3-(3-(2-(2-(2-fluoroethoxy)ethoxy)ethoxy)benzylthio)-2-(2-(4-((2-sulfamoylbenzo[d]thiazol-6-yloxy)methyl)-1H-1,2,3-triazol-1-yl)acetamido) propanoic acid] | 5
13 | CC(C)[C@@H](C(=O)N[C@@H](Cc1ccc(C(F)(F)F)cc1)C(=O)O)n1cc(COc2ccc3nc(S(N)(=O)=O)sc3c2)nn1 [DHK2-132] | 0.5
14 | NS(=O)(=O)c1nc2ccc(OCc3cn([C@@H](Cc4ccc(OCCF)cc4)C(=O)N[C@@H](CC(=O)O)c4ccccc4)nn3)cc2s1 [DHK2-135] | 5
15 | C[N+](C)(C)C[C@H](O)CC(=O)NCCCC[C@@H](C(=O)NCc1ccc(C(F)(F)F)cc1)n1cc(COc2ccc3nc(S(N)(=O)=O)sc3c2)nn1 [DHK2-147] | 11
16 | CC(C)C(C(=O)NC(Cc1ccc(OCC(O)CF)cc1)C(=O)O)n1cc(COc2ccc3nc(S(N)(=O)=O)sc3c2)nn1 (single isomer, unassigned) [VM4047a] | 5
17 | COC(=O)[C@@H](CSCc1cccc(O)c1)NC(=O)[C@H](CCO)n1cc(COc2ccc3nc(S(N)(=O)=O)sc3c2)nn1 [VM2-93] | 10
18 | COC(=O)[C@H](C[S+]([O-])Cc1cccc(OCCF)c1)NC(=O)Cn1cc(COc2ccc3sc(S(N)(=O)=O)nc3c2)nn1 (stereo partly drawn) [VM2-126, ((2S)-methyl 3-(3-(2-fluoroethoxy)benzylsulfinyl)-2-(2-(4-((2-sulfamoylbenzo[d]thiazol-6-yloxy)methyl)-1H-1,2,3-triazol-1-yl)acetamido) propanoate] | 10
19 | NS(=O)(=O)c1nc2ccc(OCc3cn([C@@H](Cc4ccc(OCCF)cc4)C(=O)O)nn3)cc2s1 [BD2-09, (S)-3-(4-(2-fluoroethoxy)phenyl)-2-(4-((2-sulfamoylbenzo[d]thiazol-6-yloxy)methyl)-1H-1,2,3-triazol-1-yl)propanoic acid] | 17
20 | NS(=O)(=O)c1nc2ccc(OCc3cn(C(Cc4ccc(F)cc4)C(=O)NC(COCc4cccc(OCCO)c4)C(=O)O)nn3)cc2s1 (single isomer, unassigned) [VM3-167B] | 10
21 | CC(C)C(C(=O)NC(COCc1cccc(OCCO)c1)C(=O)O)n1cc(COc2ccc3nc(S(N)(=O)=O)sc3c2)nn1 (single isomer, unassigned) [VM3-165A] | 5
22 | NS(=O)(=O)c1nc2ccc(OCc3cn([C@@H](Cc4ccccc4)C(=O)NCc4ccc(C(F)(F)F)cc4)nn3)cc2s1 [DHK2-51, (S)-3-phenyl-2-(4-((2-sulfamoylbenzo[d]thiazol-6-yloxy)methyl)-1H-1,2,3-triazol-1-yl)-N-(4-(trifluoromethyl)benzyl)propanamide] | 2.5
23 | CC(C)[C@@H](C(=O)N[C@H](Cc1ccc(C(F)(F)F)cc1)C(=O)O)n1cc(COc2ccc3nc(S(N)(=O)=O)sc3c2)nn1 [DHK2-160-F1] | 10

Now from value to compound:

Row | Kd [nM] | Structure (SMILES)
24 | 10 | COC(=O)C[C@H](NC(=O)[C@H](Cc1ccc(OCCF)cc1)n1cc(COc2ccc3nc(S(N)(=O)=O)sc3c2)nn1)c1ccccc1 [DHK2-128]
25 | 17 | N#Cc1ccc(C[C@H](CC(=O)[C@H](Cc2ccc(OCCF)cc2)n2cc(COc3ccc4nc(S(N)(=O)=O)sc4c3)nn2)C(=O)O)cc1 [DHK2-187]
26 | 5 | CCOC(=O)C1CCN(C(=O)[C@H](C(C)C)n2cc(COc3ccc4nc(S(N)(=O)=O)sc4c3)nn2)CC1 [DHK2-41]
27 | 10 | NS(=O)(=O)c1nc2ccc(OCc3cn([C@@H](Cc4ccccc4)C(=O)N4CCC(C(=O)O)CC4)nn3)cc2s1 [DHK2-94]
28 | 2.5 | CC1(C)O[C@@H](CF)[C@H](COc2ccc(CC(C(=O)NC(Cc3ccc(C(F)(F)F)cc3)C(=O)O)n3cc(COc4ccc5nc(S(N)(=O)=O)sc5c4)nn3)cc2)O1 (stereo partly shown) [BW-369-1B]
29 | 10 | NS(=O)(=O)c1nc2ccc(OCc3cn(CC(=O)N[C@@H](CSCc4ccccc4)C(=O)O)nn3)cc2s1 [DHK161]
30 | 14.1 | NS(=O)(=O)c1nc2ccc(OCc3cn(Cc4ccc(C(=O)O)cc4)nn3)cc2s1 [DHK159]
31 | 0.5 | NS(=O)(=O)c1nc2ccc(OCc3cn([C@@H](Cc4ccc(OCCF)cc4)C(=O)N[C@@H](Cc4ccc(C(F)(F)F)cc4)C(=O)O)nn3)cc2s1 [DHK2-134, (S)-2-((S)-3-(4-(2-fluoroethoxy)phenyl)-2-(4-((2-sulfamoylbenzo[d]thiazol-6-yloxy)methyl)-1H-1,2,3-triazol-1-yl)propanamido)-3-(4-(trifluoromethyl)phenyl)propanoic acid]
32 | 5 | COC(=O)[C@@H](CSCc1cccc(OCCF)c1)NC(=O)[C@H](CCO)n1cc(COc2ccc3nc(S(N)(=O)=O)sc3c2)nn1 [VM2-106, (S)-methyl 3-(3-(2-fluoroethoxy)benzylthio)-2-(S)-4-hydroxy-2-(4-((2-sulfamoylbenzo[d]thiazol-6-yloxy)methyl)-1H-1,2,3-triazol-1-yl)butanamido) propanoate]
33 | 3.4 | NS(=O)(=O)c1nc2ccc(OCc3cn([C@@H](Cc4ccc(OCCF)cc4)C(=O)NCc4ccc(C(F)(F)F)cc4)nn3)cc2s1 [DHK2-119]
34 | 5 | CC(C)[C@H](C(=O)N[C@@H](Cc1ccc(OCCF)cc1)C(=O)O)n1cc(COc2ccc3nc(S(N)(=O)=O)sc3c2)nn1 [VM4037b]
